In patent publication US8173699B2, “Compounds for the treatment of inflammatory diseases” (Boehringer Ingelheim International GmbH, priority 2005, dated 2012):
Where a name gives a salt, the structure may show the parent alone.

Compound: CN(C)C(=O)CN(c1cccc(N/C(=C2\C(=O)Oc3ccccc32)c2ccc(CN)c(F)c2)c1)S(C)(=O)=O (as salt: HCl) [Example 101]
- melting point: 253 to 254 °C

Compound: Cc1nc(-c2ccc(N/C(=C3\C(=O)Oc4ccccc43)c3ccc(CN)c(F)c3)cc2)cs1 [Example 102]
- melting point: 196 to 197 °C

Compound: CN1C(=O)/C(=C(\Nc2ccc(-c3cn(C)cn3)cc2)c2ccc(CN)cc2)c2ccccc21 [Example 36, 3-{(4-aminomethylphenyl)-[4-(1-methyl-1H-imidazol-4-yl)phenylamino]methylene}-1-methyl-1,3-dihydroindol-2-one]
- melting point: 214 to 217 °C
